# Data published in paper PMC9267955, “Antidiabetic, Antiglycation, and Antioxidant Activities of Ethanolic Seed Extract of Passiflora edulis and Piceatannol In Vitro” (Molecules, 2022).
# pIC50: −log10 of the molar value. Marks after values point to notes of the source that are not given here.
# Columns and labels:
# AML-12 cells [1] = assay: Intracellular ROS level (DCFH-DA) after NNKOAc; type: cell-based, mouse; settings: 50 µg/mL, 3 h pretreatment; NNKOAc 100 µM
# Experimental: The generation of intracellular ROS in BEAS-2B, AML-12, and MCF-10A cells after treatments was measured as described previously. Briefly, DCFH-DA dye was readily taken up by cells and is subsequently hydrolyzed to DCFH, which can be oxidized to a measurable fluorescent product dichlorofluorescein (DCF). […] Cells with DMSO media (0.5%) served as the vehicle control. After treatments, DCFH-DA was added to the cell culture plates at a final concentration of 5 μM followed by 40 min incubation at dark. The fluorescence […] was then measured at an excitation and emission wavelength of 485 nm and 535 nm, using a microplate reader (Infinite® 200 PRO, TECAN, Männedorf, Switzerland).
# BEAS-2B, MCF10-A, and AML-12, cells were purchased from the American Tissue Type Culture Collection (ATCC; CRL-9609, CRL-10317, and CRL-2254) and cultured with a specific medium. BEAS-2B cells were cultured with LHC-9 media at 37 °C in an incubator with 5% CO2. Culture flasks (polystyrene T75) were pre-coated with a mixture of 0.01 mg/mL fibronectin, 0.03 mg/mL bovine collagen type I, and 0.01 mg/mL bovine serum albumin were dissolved in LHC-9 medium overnight. […]
# [2] = biological target: T1, DPP-4 human recombinant enzyme (Homo sapiens, UniProt P27487); assay: DPP-4 inhibition assay; type: biochemical; settings: mean ± SD, triplicates
# T1 construct: purchased Sigma-Aldrich (Oakville, ON, Canada)
# T1 sequence (P27487 whole entry): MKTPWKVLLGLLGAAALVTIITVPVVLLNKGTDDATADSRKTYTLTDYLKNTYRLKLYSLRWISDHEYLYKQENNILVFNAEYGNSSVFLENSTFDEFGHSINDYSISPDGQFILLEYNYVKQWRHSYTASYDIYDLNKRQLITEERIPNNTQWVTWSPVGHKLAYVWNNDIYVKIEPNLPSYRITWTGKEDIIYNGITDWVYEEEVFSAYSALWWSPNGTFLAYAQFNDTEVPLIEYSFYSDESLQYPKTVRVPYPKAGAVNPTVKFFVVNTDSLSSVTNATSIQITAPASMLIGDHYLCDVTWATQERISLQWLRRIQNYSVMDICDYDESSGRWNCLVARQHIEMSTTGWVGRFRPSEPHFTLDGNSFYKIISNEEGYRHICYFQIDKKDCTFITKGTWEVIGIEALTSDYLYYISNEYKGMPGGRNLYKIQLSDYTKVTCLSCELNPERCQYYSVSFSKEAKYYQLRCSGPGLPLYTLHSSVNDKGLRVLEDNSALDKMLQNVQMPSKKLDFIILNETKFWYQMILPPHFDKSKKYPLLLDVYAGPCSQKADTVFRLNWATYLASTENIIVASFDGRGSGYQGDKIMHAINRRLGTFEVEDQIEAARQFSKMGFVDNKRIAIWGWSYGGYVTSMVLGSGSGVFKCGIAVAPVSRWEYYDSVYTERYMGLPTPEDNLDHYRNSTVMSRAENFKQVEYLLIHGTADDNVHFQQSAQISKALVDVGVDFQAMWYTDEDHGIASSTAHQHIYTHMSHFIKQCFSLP
# Experimental: The DPP-4 inhibition assay was performed according to an established method. […] The reaction mixture was incubated for 30 min in the dark at 37 °C. Then, the fluorescent product was recorded at excitation/emission wavelengths of 350/450 nm using the microplate reader (Infinite® 200 PRO, TECAN, Männedorf, Switzerland). […] The percentage of the DPP-4 inhibition and IC50 was calculated as described in Section 3.3.1.
# [3] = DPPH radical scavenging assay
# Experimental: After incubation in the dark for 30 min, the absorbance was read at 516 nm, using a UV–Vis spectrophotometer (Agilent Technologies, Santa Clara, CA, USA). Results were expressed as the half-maximal inhibitory concentration (IC50) in μg/mL.
# [4] = MGO capture using derivatization with OPD (HPLC); settings: PESE 2 mg/mL, PIC 2 mM, AMG 2 mM; MGO 2 mM; 37 °C, 1 h
# Experimental: MGO scavenging was tested using a described procedure, with slight modifications. The quantification of MGO was based on derivatization with OPD, leading to the formation of the product 2-methylquinoxyline (2-MQ). MGO and OPD were dissolved in phosphate buffer (50 mM, pH 7.4) to a concentration of 2 mM and 4 mM, respectively. […] The reaction system was composed of 125 μL of the MGO solution, 125 μL of phosphate buffer (negative control), or PESE incubated at 37 °C for 1 h. After 250 μL of the OPD solution was added, the tubes were kept for 30 min for the derivatization reaction between MGO and OPD to complete. Then, the chromatographic analysis was performed. All solutions were previously filtered (microfilter pore diameter 0.45 μm). […] The linear gradient for elution was: starting at 5% of solvent B, 0–3 min, 5 to 50% B; 3–16 min, isocratic in 50% B; 16–17 min, 50–90% B; 17–19 min, isocratic in 90% B and 19–19.5 min, 90–5% B. The derivatization product, 2-methylquinoxyline (2-MQ), was detected at 315 nm, with a retention time of 10 min. The percentage of trapping efficiency of MGO was calculated using the following equation: % trapping MGO = [100 − (peak area after adding sample/peak area without adding sample) × 100].
# alpha-glucosidase = settings: formation of p-nitrophenol; cited from earlier work
# BSA/MGO fluorescent AGEs = assay: Inhibition of AGE formation, intermediate stage of glycation (BSA/MGO); type: biochemical, bovine; settings: BSA/MGO model
# Experimental: The BSA-MGO assay was based on those described before, with some modifications. This experiment is based on the formation of fluorescent AGEs from the middle stage of protein glycation. MGO (1.5 mM) and BSA (3 mg/mL) were dissolved separately in 0.05 M phosphate buffer (pH 7.4) containing NaCl (100 mM) and NaN3 (0.02% w/v). Then, 300 μL of MGO was incubated with samples at different concentrations (dissolved in a buffer containing 60% ethanol) for an hour at 37 °C, in the dark, with constant stirring. After BSA (3 mg/mL) was added to the reaction mixture and incubation time was extended to 48 h at 37 °C in darkness. The rest of the procedure was the same as that for the BSA-glucose/fructose model that is described above. The percentage of the AGE inhibition and IC50 was calculated as described in Section 3.3.1.
# AML-12 cells [5] = assay: MTS cell viability assay; type: cell-based, mouse; settings: up to 250 µg/mL; 24 h
# Experimental: BEAS-2B, MCF10-A, and AML-12, cells were purchased from the American Tissue Type Culture Collection (ATCC; CRL-9609, CRL-10317, and CRL-2254) and cultured with a specific medium. BEAS-2B cells were cultured with LHC-9 media at 37 °C in an incubator with 5% CO2. […] Cells were grown to around 70% confluence on the culture flask, and passages (<10) were employed for all experimental conditions. MTS Cell Titer 96™ aqueous cell proliferation assay was used to determine cell viability. […] For that, 1 × 10^4 cells were plated on a 96-well plate with a growth medium of 100 μL/well. […] Fifteen microliters of MTS reagent (with PMS) was then added to each well and incubated for 3 h in the dark. Absorbance was recorded at 490 nm using a microplate reader (Infinite® 200 PRO, TECAN, Männedorf, Switzerland). For each experiment, cells with DMSO media served as control, and cells with only culture medium and MTS reagent served as the blank.
# [6] = tested on: high-fat diet-fed C57BL/6J mice; parameters: method as in PMID 25832644; settings: PIC supplementation; cited from earlier work
# Experimental for HOCl scavenging activity: Briefly, a freshly prepared HOCl solution, by adjusting the pH of a 1% solution of NaOCl to 6.2 with dropwise addition of diluted H2SO4, was diluted to 30 µM, using 100 mM phosphate buffer pH 7.4. […] QCT was used as means of comparison. Fluorescence assays were performed in a microplate reader (Infinite® 200 PRO, TECAN, Männedorf, Switzerland), at 37 °C, at wavelengths of 505 ± 10 nm and 530 ± 10 nm, for excitation and emission, respectively. The results were expressed as IC50 (μg/mL) of extract solution.
smiles,measurement,setting,value
"Oc1cc(O)cc(/C=C/c2ccc(O)c(O)c2)c1 [PIC, 3,3′,4′,5-trans-tetrahydroxystilbene]","Protection from oxidative stress (ROS) caused by the carcinogen, AML-12",AML-12 cells [1],able to protect
same,pIC50,[2],2.33
same,DPPH• IC50,[3]; 30 min,6.3 ± 1.3 µg/mL
same,IC50,[3]; data in parenthesis are in μM,25.8 µM
same,MGO trapping,[4],65.1%
same,Mechanism of alpha-glucosidase inhibition,alpha-glucosidase,non-competitive
same,"Antiglycation IC50, MGO",BSA/MGO fluorescent AGEs,67.4 ± 4.6 ^b μg/mL
same,HOCl IC50,HOCl scavenging activity,1.2 ± 0.5 µg/mL
same,Viability of AML-12 cells,AML-12 cells [5],maintained
same,"Fasting blood glucose, high-fat diet-fed C57BL/6J mice",[6],reduced fasting blood glucose
